Source: patent publication US4405643A, “Treatment of acute pulmonary edema with arginine esters” (Italfarmaco S.p.A., priority 1979, dated 1983)

Key:
[1] = test system: Fibrin Degradation Products; experiment: Inhibition of hyperfibrinolysis caused by urokinase (F.D.P., staphylococcal clumping test); assay type: in vivo, Wistar rats; conditions: parenteral, 30 min before urokinase 2500 U.I/rat
Protocol: The induction of hyperfibrinolysis state is caused by administration of urokinase. The determination of the inhibition is carried out by determination of the F.D.P. value, that is Fibrin Degradation Products, according to the procedure of J. Hawiger et al, J. Lab. Clin. Med. 75, 93 (1970), by means of the staphylococcal clumping test (Boehringer Mannheim GmbH test).
There are used Wistar rats of 300 grams ±10 by weight previously stabilized for a period of ten days at a temperature of 21°±1° C., under conditions of controlled diet and water "ad libitum". Twenty-four hours prior to the beginning of the experiment, the animals are divided in groups of ten for the purpose of achieving randomization. Each individual dose is tried on three groups of animals.
At the beginning of the test, zero time, the compounds being tested are administered through the parenteral route. In the case of the control animals, at the same time an equal volume of a physiological saline solution is administered except that some blood is removed by means of a cardiac puncture, for the purpose of determining the basal fibrinolytic activity. After 30 minutes, human urokinase (the composition marketed by Ukidan-Serono) is administered intravenously in the amount of 2500 U.I/rat. After an additional period of ten minutes, blood is removed by means of a cardiac puncture for the final determination of F.D.P., a determination which is expressed in […].

[2] = Protection against shock caused by endotoxins (lipopolysaccharide B from S. Enteritidis); assay type: in vivo, male rats of Wistar type; conditions: parenteral, 1 h before endotoxin, after 24 h
Text: Endotoxin-induced shock has been produced according to the method reported by A. Bertelli and L. Donati, in the publication "The Influence of Some Enzymes and Enzymes Inhibitors in Shock", published in "SHOCK Biochemical,Pharmaceutical and Clinical Aspects"; A. Bertelli and N. Back Editors, Advances in Experimental Medicine and Biology; Volume 9, Plenum Press New York - London 1970, page 215. By way of comparison, there has been used a substance of well known therapeutical activity, specifically aprotinine, the commercial products marketed by Farbenfabriken Bayer, under the name "Trasylol". Male rats of Wistar type of 120 grams by weight ±10 have been used. The rats were previously stabilized for a period of ten days at a temperature of 21°±1° C. under a controlled diet and water "ad libitum". Twenty-four hours prior to the test, the animals were divided in groups of ten for the purpose of achieving randomization. Every single dose has been tried on six groups of animals.
Lipopolysaccharide B from S. Enteritidis (Difco Labs.) was used as the endotoxin. This substance was administered in the dose of 10 mg/kg by the endoperitoneal route, one hour after administration of the substance being administered by the parenteral route or in the form of a physiological solution in equal volume per kilogram to the animals being used as control.
The mortality in percent was determined in the animals being tested as compared with the controls after twenty-four hours.

[3] = Protection against pulmonary edema (adrenaline-induced acute edema of the lungs); assay type: in vivo, male albino rats of Wistar type; conditions: parenteral, 15 min before adrenaline
Protocol: The method of A. M. Rothschild and A. Castania (Arch. Pharmacol., 295, 177 (1976)), has been used to develop the acute edema in the lungs and substances of known therapeutic activity have been used for comparison purpose.
For the test, male albino rats of Wistar type of average weight 250-350 grams, have been used for the test. The rats were stabilized for a period of ten days at a temperature of 21°±1° C., under conditions of controlled diet and water "ad libitum". Prior to the test, the animals were divided into groups of ten for the purpose of achieving good randomization. Each dose was tried on three groups of animals. The animals were anesthetized with pentobarbital in a dose of 30 mg/kg at the beginning of the test. After the animals were in complete narcosis, the following substances were administered by the parenteral route:
1. to the animals as controls, physiological saline solution in the amount of 1 ml/kg,
2. to the animals in the test, a solution of the substance being tested in physiological saline solution in the amount of 1 ml/kg in the doses reported hereinbelow in the table.
After a period of 15 minutes, for the purpose of determining the protective activity of the substances, adrenaline was administered in the amount of 16 γ/kg by the endovenous route and in physiological saline solution, for the purpose of causing acute edema.
After five minutes, the animals were killed by removal of the head, the lungs were removed and the weight of the lungs were determined. The results of the test are reported in Table 1 hereinbelow, together with the concentration of the substances and the relative inhibition of edema in percent.

[4] = Protection against anaphylactic shock (horse serum); assay type: in vivo, male albino guinea pigs; conditions: parenteral, with horse serum challenge, after 12 h
Protocol: The anaphylactic shock has been induced according to the method of S. M. Feinberg, M. Pharmacol. Exp. Therapeut., 99, 195 (1950). There have been used male albino guinea pigs of average weight, 350±20 grams previously stabilized for a period of ten days at a temperature of 21°±1° C., under conditions of controlled diet and water "ad libitum". Three days before the beginning of the experiment, the animals are divided in groups of ten for the purpose of achieving good randomization. Each single dose has been tried on three groups of animals.
The sensitization has been carried out by administration of 1 ml/guinea pig through the endovenous route of horse serum, (whole serum, not treated with preservatives) diluted 1:10 in physiological saline solution. After 14 days, the solutions of the substances being tested and the samples of physiological solutions for use with the controls are administered through the parenteral route. Simultaneously, 1 ml/guinea pig of horse serum, undiluted is administered, this substance being used as the agent which prompts the anaphylaxis. The percentage of mortality is determined after 12 hours.

In the case of Aprotinin, the F.D.P. ([1]; dose 1000 U.I.K./kg) is reported as 0.34 milliliters, the F.D.P. ([1]; dose 3000 U.I.K./kg) is reported as 0.29 milliliters and the F.D.P. ([1]; dose 10000 U.I.K./kg) is reported as 0.30 milliliters. For the same substance, the “% MORTALITY” value ([2]; dose 1000 U.I.K./kg) was 50.0%, the “% MORTALITY” value ([2]; dose 3000 U.I.K./kg) was 65.0% and the “% MORTALITY” value ([2]; dose 10000 U.I.K./kg) was 65.0%. For the same substance, the “% MORTALITY” value ([2]; dose 100000 U.I.K./kg) was 93.3%, the “% INHIBITION OF EDEMA” value ([3]; dose 30 U.I.K./kg) was 17.3% and the “% INHIBITION OF EDEMA” value ([3]; dose 100 U.I.K./kg) was 36.5%. The “% INHIBITION OF EDEMA” value ([3]; dose 300 U.I.K./kg) was 54.5%, the “% INHIBITION OF EDEMA” value ([3]; dose 1000 U.I.K./kg) was 42.7% and the “% MORTALITY” value ([4]; dose 3000 U.I.K./kg) was 40%. For the same substance, the “% MORTALITY” value ([4]; dose 10000 U.I.K./kg) was 55% and the “% MORTALITY” value ([4]; dose 100000 U.I.K./kg) was 80%.
